The values below come from PubChem BioAssay AID1648 (Sanford-Burnham Center for Chemical Genomics, 2009).

The structures appear in SMILES notation. Active and inactive are the calls of the source. No rule for the calls is given here.

Sequence of Serine/threonine-protein kinase mTOR (Homo sapiens) (P42345 2015-2114): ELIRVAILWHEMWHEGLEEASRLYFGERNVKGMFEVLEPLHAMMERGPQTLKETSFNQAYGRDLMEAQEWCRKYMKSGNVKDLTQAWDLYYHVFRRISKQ

The assay concerns the target Serine/threonine-protein kinase mTOR (Homo sapiens) (UniProt P42345). Description: mTOR FRB domain ligand binding – biophysical, NMR (AID 1648). The settings on record: NMR binding to FRB domain, chemical shift.
By Kd is commonly meant the equilibrium constant for the complex coming apart. For the compound `CC(=O)OC[C@H]1O[C@@H](Oc2cc(OC(C)=O)c3c(=O)cc(-c4ccc(OC(C)=O)cc4)oc3c2)[C@H](OC(C)=O)[C@@H](OC(C)=O)[C@@H]1OC(C)=O`, the Kd was > 4 mM (inactive).
For the compound `O=C(CCc1ccc(O)cc1)c1c(O)cc(O)cc1O[C@@H]1O[C@H](CO)[C@@H](O)[C@H](O)[C@H]1O`, the Kd was > 4 mM (inactive).
In the case of `Nc1cccc(S(N)(=O)=O)c1`, the Kd was > 4 mM (inactive).
Take `O=C(O)c1ccc(NCc2cccnc2)cc1`: the Kd was > 4 mM (inactive).
As for `NCc1ccc2c(c1)CCO2`, the Kd was > 4 mM (inactive).
The value for `COCc1cc(C)nc2sc(C(=O)OC)c(N)c12` was > 4 mM (inactive).
Regarding `Nc1ncnc2nc(SCCN3CCCCC3)[nH]c12`, the Kd is > 4 mM (inactive).
Under `CCC(=O)Oc1ccc(N2C(=O)CCC2=O)cc1` stands > 4 mM (inactive); under `CN1CCC(NC(=O)Cc2c(F)cccc2Cl)CC1`, > 4 mM (inactive); under `CCOc1nc(C)ccc1-c1noc(-c2ccncc2)n1`, > 4 mM (inactive).
The value for `CC(=O)O[C@H]1CC[C@@]2(C)C(=CCC3C2CC[C@@]2(C)C3CC[C@@H]2C(C)CCCC(C)C)C1` (stereo partly drawn) was > 4 mM (inactive).
As for `CCOc1ccc(-c2c(=O)n(O)c3ccccc3[n+]2[O-])cc1`, the Kd is > 4 mM (inactive).
Regarding `Cc1cc(=O)n2nc(-c3ccccc3)sc2n1`, the Kd was > 4 mM (inactive).
Under `CC(=O)Nc1cccc(Cn2cccn2)c1` stands > 4 mM (inactive); under `NC(=O)COc1cccc2cccnc12`, > 4 mM (inactive).
The value for `O=c1[nH]cc(NC(=S)N2CCOCC2)c(=O)[nH]1` was > 4 mM (inactive).
The value for `CC(C)c1nnc(N)s1` was > 4 mM (inactive).
As to `CC(CCC(=O)O)[C@H]1CCC2C3CC[C@@H]4C[C@H](O)CC[C@]4(C)C3CC[C@@]21C` (stereo partly drawn), the Kd is > 4 mM (inactive).
The value for `NC(=O)c1ccc(N2C(=O)C=CC2=O)cc1Cl` was > 4 mM (inactive); that for `Cn1ncc(SCc2ccco2)c(Cl)c1=O` was > 4 mM (inactive); that for `O=c1nc(N2CCOCC2)nc2n1CCO2` was > 4 mM (inactive).
The value for `Cc1nn(-c2ccccc2)c(Cl)c1C(N)=O` was > 4 mM (inactive); that for `O=C1CC(c2ccccc2)n2ncnc2N1` (stereo not drawn) was > 4 mM (inactive).
Consider `Clc1ccccc1OCc1nc(-c2ccncc2)no1`, for which the Kd is > 4 mM (inactive).
For `Cn1c(=O)n(CC(=O)Nc2cccnc2)c2ccccc21`, the Kd was > 4 mM (inactive).
The value for `CCn1nnc(NC(=O)c2ccccc2Br)n1` was > 4 mM (inactive).
Take `Nc1nnc(SCc2cccnc2)s1`: the Kd was > 4 mM (inactive).
The value for `CC1(C)C(=O)[C@@H]2C[C@@]3(O)C4=CC(=O)O[C@@H](c5ccoc5)[C@]4(C)CCC3C(C)(C2=O)[C@H]1CC(=O)O` (stereo partly drawn) was > 4 mM (inactive).
For `O=C1NC(=S)NC(=O)C1=Cc1ccccc1O`, the Kd was > 4 mM (inactive).
As for `c1ccc(CCc2nc(-c3ccncc3)no2)cc1`, the Kd was > 4 mM (inactive).
In the case of `C[C@@H]1CC[C@@]2(OC1)O[C@H]1CC3C4CC[C@H]5C[C@@H](O)CC[C@]5(C)C4CC[C@]3(C)[C@H]1[C@@H]2C` (stereo partly drawn), the Kd was > 4 mM (inactive).
As for `Cc1ncoc1C(=O)Nc1ncc([N+](=O)[O-])s1`, the Kd was > 4 mM (inactive).
The value for `CC(=O)O[C@H]1C[C@@H](OC(C)=O)C(C)(C)C2C[C@@H](O)[C@]3(C)C(CC[C@@]4(C)[C@H](c5ccoc5)OC(=O)[C@H]5O[C@]543)[C@]21C` (stereo partly drawn) was > 4 mM (inactive).
Under `CC(=O)c1cnc2nc(C(F)(F)F)nn2c1C` stands > 4 mM (inactive); under `NC(=O)C1(c2ccccc2)CCOCC1`, > 4 mM (inactive); under `Oc1ccccc1-c1nnco1`, > 4 mM (inactive).
With `C[C@@H]1O[C@@H](O[C@H]2CC[C@]3(C=O)C4CC[C@]5(C)[C@@H](C6=CC(=O)OC6)CC[C@]5(O)C4CC[C@]3(O)C2)[C@H](O)[C@H](O)[C@H]1O` (stereo partly drawn), the Kd was > 4 mM (inactive).
With `O=C(c1ccncc1)N1CCN(C(=O)c2ccco2)CC1`, the Kd is > 4 mM (inactive).
Consider `COC(=O)CCC(C)[C@H]1CCC2C3C(C[C@H](O)[C@@]21C)[C@@]1(C)CC[C@@H](O)C[C@H]1C[C@H]3O` (stereo partly drawn), for which the Kd is > 4 mM (inactive).
The value for `Cn1ncc(N2CCOCC2)c(Cl)c1=O` was > 4 mM (inactive); that for `NC(=O)Cc1nc(-c2ccccc2)cs1` was > 4 mM (inactive).
On to `O=C(NCN1CCOCC1)c1cccnc1`, for which the Kd was > 4 mM (inactive).
Regarding `CCNC(=S)Nc1c(C)n(C)n(-c2ccccc2)c1=O`, the Kd is > 4 mM (inactive).
As to `Cn1c(=O)n(CC(=O)N2CCOCC2)c2ccccc21`, the Kd was > 4 mM (inactive).
With `Cc1nc(CC(=O)O)c(-c2ccccc2)s1`, the Kd was > 4 mM (inactive).
As to `CN(C)S(=O)(=O)NCc1ccc2c(c1)OCO2`, the Kd was > 4 mM (inactive).
The value for `CSc1ccc(/C=N/n2c(C)nnc2C)cc1` was > 4 mM (inactive).
As for `COc1cc2c(cc1O)CC1c3c(cc(O)c(OC)c3-2)CCN1C` (stereo not drawn), the Kd was > 4 mM (inactive).
Under `OCC(O)C(O)C(O)CO` (stereo not drawn) stands > 4 mM (inactive); under `OCc1c[nH]c2ccccc12`, > 4 mM (inactive).
Under `Nc1cc2ccccc2cn1` stands > 4 mM (inactive); under `C=CCc1ccc(O)c(OC)c1`, > 4 mM (inactive).
Turning to `c1cncc(Nc2nc(-c3ccncc3)cs2)c1`, the Kd is > 4 mM (inactive).
With `NS(=O)(=O)c1ccc(N=C2NC(=O)CS2)cc1`, the Kd is > 4 mM (inactive).
Consider `CC[C@H]1CN2CCC1C[C@@H]2[C@@H](O)c1ccnc2ccc(OC)cc12` (stereo partly drawn), for which the Kd is > 4 mM (inactive).
With `N#Cc1nc(-c2ccccc2Cl)oc1N1CCOCC1`, the Kd was > 4 mM (inactive).
With `COc1cc(/C=C2\SC(=S)NC2=O)ccc1O`, the Kd was > 4 mM (inactive).
Under `O=C(CSc1nnc2ccccn12)N1CCOCC1` stands > 4 mM (inactive); under `O=C(CSc1ccnc(=O)[nH]1)NCc1ccccc1`, > 4 mM (inactive); under `CC1CC2(NC(=O)NC2=O)C(C)CN1C` (stereo not drawn), > 4 mM (inactive).
The value for `O=C(Nc1cccnc1)c1c(F)c(F)c(F)c(F)c1F` was > 4 mM (inactive).
As for `Cc1onc(-c2ccc(F)cc2)c1C(=O)O`, the Kd was > 4 mM (inactive).
Under `O=C1CN(C(=O)CN2CCOCC2)c2ccccc2N1` stands > 4 mM (inactive); under `OCC1=Cc2ccccc2OC1`, > 4 mM (inactive).
Under `CCNC(=O)CC[C@H](N)C(=O)O` stands > 4 mM (inactive); under `Cc1cc(N)ccc1NC(=O)c1ccco1`, > 4 mM (inactive); under `CCC(/C=C/[C@@H](C)[C@H]1CCC2C3CC=C4C[C@@H](O)CC[C@]4(C)C3CC[C@@]21C)C(C)C` (stereo partly drawn), > 4 mM (inactive).
Under `O=C(Nc1ccccc1)NC1CCS(=O)(=O)C1` (stereo not drawn) stands > 4 mM (inactive); under `Cc1ncc(CC(=O)O)s1`, > 4 mM (inactive).
With `Nc1ccc(S(=O)(=O)Nc2ccc(F)cc2F)cc1`, the Kd was > 4 mM (inactive).
The value for `Cc1ccc(C)n1NC(=O)c1ccco1` was > 4 mM (inactive); that for `Nc1ccc(S(=O)(=O)N2CCCCC2)cc1` was > 4 mM (inactive).
Under `COc1ccc(CN2CCNC(=O)C2CC(=O)O)cc1C` (stereo not drawn) stands > 4 mM (inactive); under `O=C(OCc1c(Cl)cccc1Cl)c1cnccn1`, > 4 mM (inactive); under `CC(CCC(=O)O)[C@H]1CCC2C3C(C[C@H](O)[C@@]21C)[C@@]1(C)CC[C@@H](O)C[C@H]1C[C@H]3O` (stereo partly drawn), > 4 mM (inactive).
Regarding `CC(=O)c1c(C)nc(-c2ccc(F)cc2)n1O`, the Kd is > 4 mM (inactive).
As for `COc1cc(C(=O)O[C@H]2CC[C@@]3(C)[C@@H]4CC[C@H]5[C@]6(O)C[C@H](O)[C@@]7(O)[C@@H](CN8C[C@@H](C)CC[C@H]8[C@@]7(C)O)[C@]6(O)C[C@@]53OC24O)cc(OC)c1OC`, the Kd is > 4 mM (inactive).
Turning to `Cc1cc(C)n2nc(NCc3ccccc3)nc2n1`, the Kd was > 4 mM (inactive).
On to `CC(C)=CCc1c(O)cc2oc(C)cc(=O)c2c1O`, for which the Kd was > 4 mM (inactive).
Under `NC(=O)C1CC2C=CC1C2` (stereo not drawn) stands > 4 mM (inactive); under `COc1ccc2c(CC(=O)O)coc2c1`, > 4 mM (inactive).
Under `CN1CCN(C(=O)c2cc(-c3ccccc3)on2)CC1` stands > 4 mM (inactive); under `Cc1cc(C(=O)Nc2ccon2)cs1`, > 4 mM (inactive); under `Cn1c(=O)cc(O)c2ccccc21`, > 4 mM (inactive).
On to `N/N=C/c1cccnc1`, for which the Kd is > 4 mM (inactive).
Turning to `COCC(=O)Nc1ccc(C)c(Cl)c1`, the Kd was > 4 mM (inactive).
Under `Cc1ccc(C)n1NC(=O)c1cccs1` stands > 4 mM (inactive); under `COc1ccc(C2CC(=O)NN2)cc1OC1CCCC1` (stereo not drawn), > 4 mM (inactive).
The value for `OCc1ccc2ncccc2c1` was > 4 mM (inactive).
In the case of `Cc1cc(C(=O)O)n[nH]1`, the Kd was > 4 mM (inactive).
Under `Cn1ncc(CO)c1-c1ccccc1` stands > 4 mM (inactive).
Turning to `O=C1CSC(=Nc2ccccc2[N+](=O)[O-])N1`, the Kd was > 4 mM (inactive).
Under `O=C(O)c1ccc2nccnc2c1` stands > 4 mM (inactive).
Under `c1ccc(-c2nsc(N3CCNCC3)n2)cc1` stands > 4 mM (inactive); under `COc1cc2c(cc1OC)Cc1cc(OC)c(OC)cc1Cc1cc(OC)c(OC)cc1C2`, > 4 mM (inactive).
In the case of `CCOC(=O)c1c(C)cc(O)cc1O`, the Kd is > 4 mM (inactive).
The value for `CN1CCN(c2ncnc3nc[nH]c23)CC1` was > 4 mM (inactive); that for `COc1ccc2cc1Oc1ccc(cc1)C[C@H]1c3cc(c(OC)cc3CCN1C)Oc1c(OC)c(OC)cc3c1[C@H](C2)N(C)CC3` was > 4 mM (inactive).
